Test results: PubChem BioAssay (NCI)
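How tested: cells in 96-well plates exposed to compound for 48 hours at five concentrations. Definition used: TGI = concentration required for complete inhibition of growth.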

Assays:
Experiment in all cases: inhibition of tumour cell growth, NCI panel, 48 h
BT-549 breast = test system: BT-549 breast
RXF 393 renal = test system: RXF 393 renal
HL-60(TB) leukemia = test system: HL-60(TB) leukemia
786-0 renal = test system: 786-0 renal
MCF7 breast = test system: MCF7 breast
OVCAR-8 ovarian = test system: OVCAR-8 ovarian
HCC-2998 colon = test system: HCC-2998 colon
COLO 205 colon = test system: COLO 205 colon
KM12 colon = test system: KM12 colon
SNB-75 CNS = test system: SNB-75 CNS
UO-31 renal = test system: UO-31 renal

| SMILES | TGI (BT-549 breast) [µM] | TGI (RXF 393 renal) [µM] | TGI (HL-60(TB) leukemia) [µM] | TGI (786-0 renal) [µM] | TGI (MCF7 breast) [µM] | TGI (OVCAR-8 ovarian) [µM] | TGI (HCC-2998 colon) [µM] | TGI (COLO 205 colon) [µM] | TGI (KM12 colon) [µM] | TGI (SNB-75 CNS) [µM] | TGI (UO-31 renal) [µM] |
| --- | --- | --- | --- | --- | --- | --- | --- | --- | --- | --- | --- |
| COc1ccccc1N=C1SCCN1C(=S)Nc1ccc(S(=O)(=O)/N=C/N(C)C)cc1 | 49.8 | 45.8 | > 100 | > 100 | 83.7 | > 100 | > 100 | > 100 | > 100 | 98.4 | > 100 |
| CCCCCCCCCCCCCCCCP(=O)([O-])OCC[N+](C)(C)C | 22.6 | 15 | 17.9 | 19.9 | 35.3 | 32.7 | 22 | 20.5 | 9.33 | 29 | 28.2 |
| CC1=CC(=O)/C(=C/n2c(=S)[nH]c3ccccc32)C(=O)O1 | > 100 | > 100 | > 100 | > 100 | > 100 | > 100 | > 100 | > 100 | > 100 | > 100 | > 100 |
| CCCC1(N)CC(OC)OC(C)C1O (centres undefined) | > 100 | > 100 | > 100 | > 100 | > 100 | > 100 | > 100 | > 100 | > 100 | > 100 | > 100 |
| CSC1=C(C(=O)Nc2ccccc2)C(N)=NC1=O | > 100 | > 100 | > 100 | > 100 | > 100 | > 100 | > 100 | > 100 | > 100 | > 100 | > 100 |
| Nc1ccc(-c2nc3ccccc3s2)cc1Br | > 100 | > 100 | > 100 | > 100 | > 100 | > 100 | > 100 | > 100 | > 100 | > 86.4 | > 100 |
| Cc1sc2nc3n(c(=O)c2c1C)N=C(c1ccc([N+](=O)[O-])cc1)CS3 | > 100 | > 100 | > 100 | > 100 | > 100 | > 100 | > 100 | > 100 | > 100 | > 100 | > 100 |
| C=CCN1CCC2(CC1)NC(=O)c1ccccc1O2 | > 100 | > 100 | > 100 | > 100 | > 100 | > 100 | > 100 | > 100 | > 100 | > 100 | > 100 |
| C=CCC(CNC(=O)OCc1ccccc1)OC(=O)OCc1ccccc1 (centres undefined) | > 100 | > 100 | > 100 | > 100 | > 100 | > 100 | > 100 | > 100 | > 100 | > 100 | > 100 |
